Experimental findings from patent publication US5922697A, “Compounds, compositions and methods for inhibiting the binding of proteins containing an SH2 domain to cognate phosphorylated proteins” (Warner-Lambert Company, priority 1998, dated 1999) are described below.

Structures are written as SMILES.

Test [1] has as its target T1, Syp(N) SH2-GST binding to PDGF receptor kinase domain (Homo sapiens, UniProt Q06124).
T1 construct: S-X-SH2-GST (X=Src, Ab1, Grb2, p85-N, p85-C, Syp-N, and PLCy-C domains)
Put plainly: Inhibition of activated PDGF receptor binding to 35S-SH2 domains: Syp(N) SH2-GST. The conditions noted are these: 35S-Syp(N) SH2-GST, immobilized PDGF receptor kinase domain, pH 7.5, room temperature, 30 minutes.

The target in test [2] is T2, Abl SH2-GST binding to PDGF receptor kinase domain (Homo sapiens, UniProt P00519).
T2 construct: S-X-SH2-GST (X=Src, Ab1, Grb2, p85-N, p85-C, Syp-N, and PLCy-C domains)
T2 sequence (P00519 127-217 limits assumed): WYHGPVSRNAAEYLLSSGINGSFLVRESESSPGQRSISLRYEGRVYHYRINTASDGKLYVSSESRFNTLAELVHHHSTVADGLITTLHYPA
The experiment in a line: Inhibition of activated PDGF receptor binding to 35S-SH2 domains: Abl SH2-GST. On the procedure: Inhibition of Activated PDGF Receptor Binding to ^35 S-SH2 Domains
The assay was conducted at room temperature for 30 minutes while continuously inverting the plate. The resultant SH2-GST-PDGF receptor kinase complex was separated from excess ^35 S-SH2-GST protein by vacuum filtration and the amount of bound SH2-GST was determined by scintillation counting. Results are expressed as IC50 values and/or % inhibition at specified concentrations in Table 2 below.

Test [3] addresses T3, Grb2 SH2-GST binding to PDGF receptor kinase domain (Homo sapiens, UniProt P62993).
T3 construct: S-X-SH2-GST (X=Src, Ab1, Grb2, p85-N, p85-C, Syp-N, and PLCy-C domains)
The experiment in a line: Inhibition of activated PDGF receptor binding to 35S-SH2 domains: Grb2 SH2-GST. The conditions noted are these: 35S-Grb2 SH2-GST, immobilized PDGF receptor kinase domain, pH 7.5, room temperature, 30 minutes.

Test [4] deals with T4, PLCγ(C) SH2-GST binding to PDGF receptor kinase domain (Homo sapiens, UniProt P19174).
T4 construct: S-X-SH2-GST (X=Src, Ab1, Grb2, p85-N, p85-C, Syp-N, and PLCy-C domains)
T4 sequence (P19174 668-756 limits assumed): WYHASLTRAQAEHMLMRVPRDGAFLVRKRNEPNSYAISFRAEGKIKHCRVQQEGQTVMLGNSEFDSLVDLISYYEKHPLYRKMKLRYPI
The experiment in a line: Inhibition of activated PDGF receptor binding to 35S-SH2 domains: PLCγ(C) SH2-GST. The conditions noted are these: 35S-PLCγ(C) SH2-GST, immobilized PDGF receptor kinase domain, pH 7.5, room temperature, 30 minutes.

Test [5] has as its target T5, p85(C) SH2-GST binding to PDGF receptor kinase domain (Homo sapiens, UniProt P27986).
T5 construct: S-X-SH2-GST (X=Src, Ab1, Grb2, p85-N, p85-C, Syp-N, and PLCy-C domains)
The experiment in a line: Inhibition of activated PDGF receptor binding to 35S-SH2 domains: p85(C) SH2-GST. The conditions noted are these: 35S-p85(C) SH2-GST, immobilized PDGF receptor kinase domain, pH 7.5, room temperature, 30 minutes.

A further test deals with T6, Abl SH2 (Homo sapiens, UniProt P00519).
T6 construct: glutathione-S-transferase(GST)-Abl SH2 fusion protein
T6 sequence (P00519 127-217 limits assumed): T2 sequence (P00519 127-217 limits assumed)
Put plainly: Inhibition of 125I-phosphopeptide binding to immobilized Abl SH2. The conditions noted are these: competitive 125I-phosphopeptide displacement, GST-Abl SH2 fusion protein, pH 7.5, room temperature, 20 minutes; read-out: IC50, Abl SH2 Binding. Here is the method: The binding affinities of compounds of the present invention to Abl SH2 was determined using a competitive radiolabeled phosphopeptide displacement assay. […] Binding was performed at room temperature for 20 minutes while continuously inverting the plate.

A further test addresses T7, Src SH2 (Homo sapiens, UniProt P12931).
T7 construct: glutathione-S-transferase(GST)-Src SH2 fusion protein
Put plainly: Inhibition of 125I-phosphopeptide binding to immobilized Src SH2. Particulars: competitive 125I-phosphopeptide displacement, GST-Src SH2 fusion protein, pH 7.5, room temperature, 20 minutes; read-out: IC50, SRC SH2 Binding. On the procedure:
The binding affinities of compounds of the present invention to Src SH2 was determined using a competitive radiolabeled phosphopeptide displacement assay.
Binding was performed at room temperature for 20 minutes while continuously inverting the plate. […] Results are expressed as IC50 values in Table 1 below.

A further test deals with Swiss 3T3 cells. Put plainly: Inhibition of DNA synthesis as monitored by 3H-thymidine uptake. The class given is cell-based. The conditions noted are these: Swiss 3T3 cells stimulated with growth factor (PDGFbb or Fetal Bovine Serum), 24 hours; compound concentration not given. Here is the method: Inhibition of DNA Synthesis as Monitored by ^3 H-Thymidine Uptake
DNA synthesis occurs when a cell is exposed to Platelet Derived Growth Factor (PDGF). For PDGF-induced DNA synthesis to occur, c-SRC or another member of the SRC gene family is required. The ability of the SRC SH2 inhibitors of the present invention to block PDGF-stimulated DNA synthesis can be assessed using the protocol set forth below.
Swiss 3T3 cells were grown in 12-well plates for 3 days to approximately 50% confluency. The growth media was removed and replaced with 1.0 mL/well of assay buffer (Dulbecco's Modified Eagle Medium containing 0.2% Bovine Serum Albumin), and incubated for 24 hours to arrest growth.
Test compounds (5 μL) were add at 100 times their final concentration. Methyl sulfoxide was used as a control and levels in all wells kept under 1.0% of DMSO. Cells were then stimulated with growth factor (PDGFbb or Fetal Bovine Serum), and allowed to incubate another 24 hours.
During the final 2 hours of treatment, 5 uL of 0.1 μCi/μL ^3 H-thymidine was added to each well (final=0.5 μCi/well)
After incubation the medium was removed by aspiration, and each well was washed twice with ice-cold phosphate buffered saline (0.5 mL/wash). 0.5 mL ice-cold 5% trichloroacetic acid was added to each well and incubated on ice for a minimum 10 minutes. The trichloroacetic acid solution was removed and each well was washed twice with 0.5 mL ice-cold trichloroacetic acid, and then once with ice-cold water (0.5 mL). 0.5 mL of 2% Sodium Dodecyl Sulfate was added to each well to solubilize the cells and allowed to incubate at room temperature for 10-15 minutes. The solubilized cells were transfered to 20 mL scintillation vials. Each well was washed with 0.5 mL of water and combined with the corresponding scintillation vial. 10 mL of Ready-Gel scintillation cocktail was added to each vial and the vials were then counted in a scintillation counter. Results are shown as percent of ^3 H-thymidine uptake relative to control in Table 4 below.

T7 sequence (P12931 151-248 limits assumed): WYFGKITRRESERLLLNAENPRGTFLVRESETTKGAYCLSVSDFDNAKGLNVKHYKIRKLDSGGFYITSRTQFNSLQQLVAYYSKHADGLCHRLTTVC
T1 sequence (Q06124 6-102): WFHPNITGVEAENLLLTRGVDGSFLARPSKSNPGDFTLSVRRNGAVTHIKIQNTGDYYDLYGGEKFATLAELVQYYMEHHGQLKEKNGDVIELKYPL
T5 sequence (P27986 624-718 limits assumed): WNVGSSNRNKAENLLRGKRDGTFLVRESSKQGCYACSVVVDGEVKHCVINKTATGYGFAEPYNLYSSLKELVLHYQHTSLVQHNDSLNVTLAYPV
T3 sequence (P62993 60-152 limits assumed): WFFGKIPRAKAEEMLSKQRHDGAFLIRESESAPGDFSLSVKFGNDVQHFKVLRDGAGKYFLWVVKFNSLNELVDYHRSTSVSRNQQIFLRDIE

Consider `CC(=O)N[C@@H](Cc1ccc(OP(=O)(O)O)cc1)C(=O)NC(C)c1ccc(OCC2CCCCC2)c(C(N)=O)c1` (mixture of isomers) [Example 51, Phosphoric acid mono-(4-{(S)-2-acetylamino-2-[(RS)-1-(3-carbamoyl-4-cyclohexylmethoxy-phenyl)-ethylcarbamoyl]-ethyl}-phenyl) ester], for which the IC50 in test [1] was ~100 µM; in test [2], 12.1 µM; in test [3], ~100 µM; in test [4], > 100 µM; in test [5], > 100 µM.

For `CC(=O)N[C@@H](Cc1ccc(C(F)(F)P(=O)(O)O)cc1)C(=O)NC(C)c1ccc(OCC2CCCCC2)c(C(N)=O)c1` (single isomer, unassigned) [Example 63a, [S-(R*,R*)]- or [S-(R*,S*)]-[(4-{2-Acetylamino-2-[1-(3-carbamoyl-4-cyclohexylmethoxy-phenyl)-ethylcarbamoyl]-ethyl]-phenyl)-difluoro-methyl]-phosphonic acid], the IC50 at Abl SH2 came out at 2 µM; at Src SH2 it was 0.3 µM. For the same compound, the “3H-Thymidine Uptake, % Uptake Relative to Control” value in the test with Swiss 3T3 cells is on record as 73%.

As to `CC(=O)N[C@@H](Cc1ccc(C(F)(F)P(=O)(O)OCOC(=O)C(C)(C)C)cc1)C(=O)NC(C)c1ccc(OCC2CCCCC2)c(C(N)=O)c1` (single isomer, unassigned) [Example 77, [S-(R*,R*)]- or [S-(R*,S*)]-2,2-Dimethyl-propionic acid {[(4-{2-Acetylamino-2-[1-(3-carbamoyl-4-cyclohexylmethoxy-phenyl)-ethylcarbamoyl]-ethyl}-phenyl)-difluoro-methyl} hydroxy-phosphinoyloxymethyl ester], in the test with Swiss 3T3 cells, the “3H-Thymidine Uptake, % Uptake Relative to Control” value is on record as 34%.

As for `CC[C@H](NC(=O)[C@H](Cc1ccc(C(F)(F)P(=O)(O)OCOC(=O)C(C)(C)C)cc1)NC(C)=O)C(=O)N(C)CCCC1CCCCC1` [Example 55, [S-(R*,R*)]-2,2-Dimethyl-propionic acid {[4-(2-acetylamino-2-{1-[(3-cyclohexyl-propyl)-methyl-carbamoyl]-propylcarbamoyl}-ethyl)-phenyl]-difluoro-methyl}-hydroxy-phosphinoyloxymethyl ester], the IC50 at Abl SH2 and at Src SH2 was > 100 µM each time. The “3H-Thymidine Uptake, % Uptake Relative to Control” value with Swiss 3T3 cells is listed as 61%.
